Assay results taken from US20250270173A1, “PYRIDINE DERIVATIVES FOR TREATING PSYCHIATRIC DISORDERS” (GILGAMESH PHARMACEUTICALS, INC., priority 2022, published 2025).
Like-named read-outs stand apart in the source and are kept apart here.

Columns and labels:
5-HT2A receptor [1] = biological target: T1, 5-HT2A receptor (Homo sapiens (Human), UniProt P28223); assay: FLIPR Ca2+ flux functional assay at 5-HT2A (HEK293); conditions: for 5-HT2A % Act @ Max Conc.: HEK293, at max concentration
5-HT2A receptor [2] = biological target: T1, 5-HT2A receptor; assay: 5-HT2A receptor radioligand binding with [3H]ketanserin; conditions: read-out: Ki at 5-HT2A Receptor (nM) ([3H]ketanserin); HEK293 stable cell line, 1 nM [3H]ketanserin, 1 h, 25 °C
5-HT2B receptor = 5-HT2B receptor (Homo sapiens (Human), UniProt P41595); assay: FLIPR Ca2+ flux functional assay at 5-HT2B (HEK293); conditions: for 5-HT2B % Act @ Max Conc.: HEK293, at max concentration
Chain of 5-HT2B receptor (P41595 whole entry, looked up): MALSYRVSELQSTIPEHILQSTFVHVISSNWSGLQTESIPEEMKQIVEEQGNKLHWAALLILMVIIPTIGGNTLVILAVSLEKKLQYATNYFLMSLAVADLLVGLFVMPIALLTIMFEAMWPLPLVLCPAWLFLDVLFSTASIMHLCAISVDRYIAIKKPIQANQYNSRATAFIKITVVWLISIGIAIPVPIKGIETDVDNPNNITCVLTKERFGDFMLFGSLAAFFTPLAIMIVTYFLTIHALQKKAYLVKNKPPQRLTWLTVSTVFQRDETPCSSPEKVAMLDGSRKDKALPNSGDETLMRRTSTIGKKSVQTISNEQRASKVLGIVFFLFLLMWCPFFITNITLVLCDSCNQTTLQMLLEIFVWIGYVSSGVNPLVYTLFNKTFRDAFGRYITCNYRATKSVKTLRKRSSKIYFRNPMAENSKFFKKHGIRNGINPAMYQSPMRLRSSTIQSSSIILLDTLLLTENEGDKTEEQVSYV

5-HT1A receptor = 5-HT1A receptor (Homo sapiens (Human), UniProt P08908); assay: FLIPR Ca2+ flux functional assay at 5-HT1A (CHO cells); conditions: for 5-HT1A % Act @ Max Conc.: at max concentration
[3] = read-out: 5-HT2A EC50, Ca2+ flux, HEK293
[4] = read-out: 5-HT2B EC50, Ca2+ flux, HEK293

Q: What does the source list for `COc1ccccc1CNCCc1nc(OC)c(Br)cc1OC` [Compound 25, 2-(5-bromo-3,6-dimethoxypyridin-2-yl)-N-(2-methoxybenzyl)ethan-1-amine]?
A: EC50 (5-HT2A receptor [1]): 1.59 nM; 5-HT2A % Act @ Max Conc. (5-HT2A receptor [1]; Ca2+ flux): 93.57%; Ki (5-HT2A receptor [2]): 0.35 nM; EC50 (5-HT2B receptor): > 10000 nM; 5-HT2B % Act @ Max Conc. (5-HT2B receptor; Ca2+ flux): 8.22%; EC50 (5-HT1A receptor): > 100 µM; 5-HT1A % Act @ Max Conc. (5-HT1A receptor; Ca2+ flux, CHO cells): 21.35%

Q: Which “5-HT2A % Act @ Max Conc.” value (5-HT2A receptor [1]; Ca2+ flux) does the source give for `CCc1cc(OC)c(CCN)cc1OC` [Compound 2C-E, 2C-E, reference compound] here?
A: The value was 105%.

Q: What about the EC50 (5-HT2A receptor [1]; [3]) of the same compound?
A: The EC50 was 0.747 nM.

Q: What about the Ki (5-HT2A receptor [2]) of the same compound?
A: The Ki was 16.7 nM.

Q: And the “5-HT2B % Act @ Max Conc.” value (5-HT2B receptor; Ca2+ flux)?
A: The value was 66.2%.

Q: And the EC50 (5-HT2B receptor; [4])?
A: The EC50 was 29.7 nM.

Q: What about the “5-HT1A % Act @ Max Conc.” value (5-HT1A receptor; Ca2+ flux, CHO cells) of the same compound?
A: The value was 17.9%.

Q: With `COc1cc(CCN)c(OC)cc1Br` [Compound 2C-B, 2C-B, reference compound] as the compound, how does the “5-HT2A % Act @ Max Conc.” value (5-HT2A receptor [1]; Ca2+ flux) read?
A: Its value is 99.7%.

Q: What about the EC50 (5-HT2A receptor [1]; [3]) of the same compound?
A: The EC50 was 0.478 nM.

Q: What about the Ki (5-HT2A receptor [2]) of the same compound?
A: Its Ki is 8.25 nM.

Q: What about the “5-HT2B % Act @ Max Conc.” value (5-HT2B receptor; Ca2+ flux) of the same compound?
A: Its value is 73.3%.

Q: What about the EC50 (5-HT2B receptor; [4]) of the same compound?
A: Its EC50 is 20 nM.

Q: And the “5-HT1A % Act @ Max Conc.” value (5-HT1A receptor; Ca2+ flux, CHO cells)?
A: The value was 47.8%.

Q: What about the EC50 (5-HT1A receptor; read-out: 5-HT1A EC50, Ca2+ flux, CHO cells) of the same compound?
A: Its EC50 is 33.1 µM.

Q: What does the source list for `COc1cc(Cl)c(OC)nc1CC(C)N` (stereo not drawn) [Compound 17, 1-(5-chloro-3,6-dimethoxypyridin-2-yl)propan-2-amine]?
A: EC50 (5-HT2A receptor [1]): 6.27 nM; 5-HT2A % Act @ Max Conc. (5-HT2A receptor [1]; Ca2+ flux): 99.4%; Ki (5-HT2A receptor [2]): 404 nM; EC50 (5-HT2B receptor): 540 nM; 5-HT2B % Act @ Max Conc. (5-HT2B receptor; Ca2+ flux): 70.03%; EC50 (5-HT1A receptor): > 100 µM; 5-HT1A % Act @ Max Conc. (5-HT1A receptor; Ca2+ flux, CHO cells): 0.79%

Q: For `CCc1cc(OC)c(CCN)nc1OC` [Compound 19, 2-(5-ethyl-3,6-dimethoxypyridin-2-yl)ethan-1-amine], which EC50 (5-HT2A receptor [1]) is on record?
A: The EC50 was 20.3 nM.

Q: And the “5-HT2A % Act @ Max Conc.” value (5-HT2A receptor [1]; Ca2+ flux)?
A: The value was 96.03%.

Q: And the Ki (5-HT2A receptor [2])?
A: Its Ki is 111 nM.

Q: What about the EC50 (5-HT2B receptor) of the same compound?
A: The EC50 was 218 nM.

Q: What about the “5-HT2B % Act @ Max Conc.” value (5-HT2B receptor; Ca2+ flux) of the same compound?
A: The value was 20.07%.

Q: And the EC50 (5-HT1A receptor)?
A: Its EC50 is 12 µM.

Q: What about the “5-HT1A % Act @ Max Conc.” value (5-HT1A receptor; Ca2+ flux, CHO cells) of the same compound?
A: The value was 1.25%.

Q: How did the EC50 (5-HT2A receptor [1]) turn out when `COc1cc(CCCC(F)(F)F)c(OC)nc1CCN` [Compound 33, 2-(3,6-dimethoxy-5-(4,4,4-trifluorobutyl)pyridin-2-yl)ethan-1-amine] was run?
A: The EC50 was 45.7 nM.

Q: And the “5-HT2A % Act @ Max Conc.” value (5-HT2A receptor [1]; Ca2+ flux)?
A: Its value is 68.5%.

Q: What about the Ki (5-HT2A receptor [2]) of the same compound?
A: The Ki was 104 nM.

Q: And the EC50 (5-HT2B receptor)?
A: Its EC50 is greater than 10000 nM.

Q: What about the “5-HT2B % Act @ Max Conc.” value (5-HT2B receptor; Ca2+ flux) of the same compound?
A: Its value is 1.05%.

Q: What about the EC50 (5-HT1A receptor) of the same compound?
A: The EC50 was greater than 100 µM.

Q: What about the “5-HT1A % Act @ Max Conc.” value (5-HT1A receptor; Ca2+ flux, CHO cells) of the same compound?
A: The value was 10.46%.

Q: Which EC50 (5-HT2A receptor [1]) does the source give for `CCCCCc1cc(OC)c(CC(C)N)nc1OC` (stereo not drawn) [Compound 4, 1-(3,6-dimethoxy-5-pentylpyridin-2-yl)propan-2-amine] here?
A: The EC50 was 15.4 nM.

Q: What about the “5-HT2A % Act @ Max Conc.” value (5-HT2A receptor [1]; Ca2+ flux) of the same compound?
A: Its value is 132.71%.

Q: What about the Ki (5-HT2A receptor [2]) of the same compound?
A: The Ki was 26.2 nM.

Q: What about the EC50 (5-HT2B receptor) of the same compound?
A: The EC50 was greater than 10000 nM.

Q: What about the “5-HT2B % Act @ Max Conc.” value (5-HT2B receptor; Ca2+ flux) of the same compound?
A: The value was 14.53%.

Q: What about the EC50 (5-HT1A receptor) of the same compound?
A: Its EC50 is 48.1 µM.

Q: What about the “5-HT1A % Act @ Max Conc.” value (5-HT1A receptor; Ca2+ flux, CHO cells) of the same compound?
A: Its value is 67.31%.

Q: `COc1cc(C2CC2)c(OC)nc1CC(C)N` (stereo not drawn) [Compound 27, 1-(5-cyclopropyl-3,6-dimethoxypyridin-2-yl)propan-2-amine] was tested. Which EC50 (5-HT2A receptor [1]) did it give?
A: Its EC50 is 15 nM.

Q: And the “5-HT2A % Act @ Max Conc.” value (5-HT2A receptor [1]; Ca2+ flux)?
A: Its value is 104.13%.

Q: And the Ki (5-HT2A receptor [2])?
A: The Ki was 304 nM.

Q: What about the EC50 (5-HT2B receptor) of the same compound?
A: The EC50 was 246 nM.

Q: And the “5-HT2B % Act @ Max Conc.” value (5-HT2B receptor; Ca2+ flux)?
A: Its value is 61.18%.

Q: What about the EC50 (5-HT1A receptor) of the same compound?
A: Its EC50 is greater than 100 µM.

Q: And the “5-HT1A % Act @ Max Conc.” value (5-HT1A receptor; Ca2+ flux, CHO cells)?
A: Its value is 0.49%.

Q: `COc1cc(CCCCCF)c(OC)nc1CCN` [Compound 34, 2-(5-(5-fluoropentyl)-3,6-dimethoxypyridin-2-yl)ethan-1-amine] was tested. Which EC50 (5-HT2A receptor [1]) did it give?
A: The EC50 was 13.5 nM.

Q: And the “5-HT2A % Act @ Max Conc.” value (5-HT2A receptor [1]; Ca2+ flux)?
A: The value was 64.66%.

Q: And the Ki (5-HT2A receptor [2])?
A: The Ki was 10.2 nM.

Q: What about the EC50 (5-HT2B receptor) of the same compound?
A: The EC50 was greater than 10000 nM.

Q: And the “5-HT2B % Act @ Max Conc.” value (5-HT2B receptor; Ca2+ flux)?
A: Its value is 7.93%.

Q: What about the EC50 (5-HT1A receptor) of the same compound?
A: The EC50 was greater than 100 µM.

Q: What about the “5-HT1A % Act @ Max Conc.” value (5-HT1A receptor; Ca2+ flux, CHO cells) of the same compound?
A: The value was 4.8%.

Q: Which results are given for `CCc1cc(OC)c(CC(C)N)nc1OC` (stereo not drawn) [Compound 20, 1-(5-ethyl-3,6-dimethoxypyridin-2-yl)propan-2-amine]?
A: EC50 (5-HT2A receptor [1]): 5.79 nM; 5-HT2A % Act @ Max Conc. (5-HT2A receptor [1]; Ca2+ flux): 98.11%; Ki (5-HT2A receptor [2]): 322 nM; EC50 (5-HT2B receptor): 293 nM; 5-HT2B % Act @ Max Conc. (5-HT2B receptor; Ca2+ flux): 75.75%; EC50 (5-HT1A receptor): > 100 µM; 5-HT1A % Act @ Max Conc. (5-HT1A receptor; Ca2+ flux, CHO cells): 0.9%
